Common to all, as to type: organism-based
Conditions in all cases: in vivo

The subject of data set [1] is Plutella xylostella. The data set can be described thus: Toxicity in Plutella xylostella larvae after 24 hrs.
The subject of data set [2] is Plutella xylostella. The data set is described as follows: Toxicity in Plutella xylostella larvae after 48 hrs.
In data set [3] the test system is Plutella xylostella. The data set is described as follows: Toxicity in Plutella xylostella larvae after 72 hrs.
In data set [4] the test system is Plutella xylostella. The data set can be described thus: Toxicity in Plutella xylostella larvae after 96 hrs.

Regarding `C/C=C(\C)C(=O)O[C@H]1C[C@@H](OC(C)=O)[C@@]2(C(=O)OC)CO[C@H]3[C@@H](O)[C@@](C)([C@]45O[C@@]4(C)[C@H]4C[C@@H]5O[C@@H]5OC=C[C@@]54O)[C@@H]4[C@@H](O)OC[C@@]14[C@@H]32`, the LD50 in the data set on Plutella xylostella [1] amounted to 5.75 µg/g; in the data set with Plutella xylostella [2], 4.2 µg/g; in the data set on Plutella xylostella [3], 1.38 µg/g; with Plutella xylostella [4], 0.75 µg/g.
In the case of `C/C=C(\C)C(=O)O[C@H]1C[C@@H](OC(C)=O)[C@@]2(C(=O)OC)CO[C@H]3[C@@H](O)[C@@](C)([C@]45O[C@@]4(C)[C@@H]4C[C@H]5O[C@@H]5OC=C[C@@]54O)[C@H]4[C@]1(CO[C@]4(O)C(=O)OC)[C@@H]32` [AZADIRACHTIN A], the LD50 turned out to be 7.04 µg/g with Plutella xylostella [1], 4.12 µg/g with Plutella xylostella [2], 1.28 µg/g in the data set with Plutella xylostella [3] and 0.87 µg/g with Plutella xylostella [4].
Consider `COC(=O)[C@@]12CO[C@H]3[C@@H](O)[C@@](C)([C@]45O[C@@]4(C)[C@H]4C[C@@H]5O[C@@H]5OC=C[C@@]54O)[C@@H]4[C@@H](O)OC[C@]4([C@@H](OC(=O)CC(C)C)C[C@H]1OC(C)=O)[C@@H]32` [AZADIRACHTIN P], for which the LD50 in the data set with Plutella xylostella [1] was 2.19 µg/g; in the data set with Plutella xylostella [2], 1.73 µg/g; with Plutella xylostella [3] it was 1.19 µg/g; in the data set with Plutella xylostella [4], 0.79 µg/g.
For `COC(=O)[C@H]1OC[C@]23[C@@H]1[C@](C)([C@]14O[C@@]1(C)[C@H]1C[C@@H]4O[C@@H]4OC=C[C@@]41O)[C@H](O)[C@@H]1OC[C@](C(=O)OC)([C@H](O)C[C@@H]2O)[C@H]13` [AZADIRACHTOL] the same measures were 4.88 µg/g, 3.28 µg/g, 2.35 µg/g and 1.78 µg/g.
As to `C/C=C(\C)C(=O)O[C@H]1C[C@@H](OC(C)=O)[C@@]2(C(=O)OC)CO[C@H]3[C@@H](O)[C@@](C)([C@]45O[C@@]4(C)[C@H]4C[C@@H]5O[C@@H]5OC=C[C@@]54O)[C@@H]4[C@@H](OC(C)=O)OC[C@@]14[C@@H]32` [AZADIRACHTIN L], the LD50 with Plutella xylostella [1] came out at 10.27 µg/g; in the data set with Plutella xylostella [2], 7.89 µg/g; with Plutella xylostella [3], 5.39 µg/g; in the data set on Plutella xylostella [4], 1.92 µg/g.
Take `COC(=O)[C@H]1OC[C@@]23[C@@H](OC(C)=O)C[C@@H](OC(C)=O)[C@@]4(C(=O)OC)CO[C@@H]([C@@H](O)[C@@](C)([C@]56O[C@@]5(C)[C@H]5C[C@@H]6O[C@@H]6OC=C[C@@]65O)[C@H]12)[C@@H]43` [AZADIRACHTIN Q]: the LD50 with Plutella xylostella [1] turned out to be 5.95 µg/g; in the data set on Plutella xylostella [2] it was 1.89 µg/g; in the data set on Plutella xylostella [3], 1.4 µg/g; in the data set on Plutella xylostella [4], 1.1 µg/g.
In the case of `C/C=C(\C)C(=O)O[C@H]1C[C@@H](OC(C)=O)[C@@]2(C(=O)OC)CO[C@H]3[C@@H](O)[C@@](C)([C@]45O[C@@]4(C)[C@H]4C[C@@H]5O[C@@H]5OC=C[C@@]54O)[C@@H]4[C@@H](C(=O)OC)OC[C@@]14[C@@H]32` [AZADIRACHTIN M], the LD50 with Plutella xylostella [1] worked out at 8.46 µg/g; with Plutella xylostella [2] it was 4.84 µg/g; with Plutella xylostella [3], 4.23 µg/g; with Plutella xylostella [4] it was 1.3 µg/g.
As for `C/C=C(\C)C(=O)O[C@@H]1C[C@H](O)[C@]23CO[C@H](C(=O)OC)[C@H]2[C@](C)([C@]24O[C@@]2(C)[C@H]2C[C@@H]4O[C@@H]4OC=C[C@@]42O)[C@H](O)[C@@H]2OC[C@@]1(C(=O)OC)[C@H]23` [AZADIRACHTIN B], the LD50 with Plutella xylostella [1] stood at 4.85 µg/g; in the data set with Plutella xylostella [2] it was 2.26 µg/g; in the data set on Plutella xylostella [3] it was 1.56 µg/g; in the data set with Plutella xylostella [4] it was 1.06 µg/g.
On to `COC(=O)[C@H]1OC[C@@]23[C@@H](OC(=O)CC(C)C)C[C@@H](OC(C)=O)[C@@]4(C(=O)OC)CO[C@@H]([C@@H](O)[C@@](C)([C@]56O[C@@]5(C)[C@H]5C[C@@H]6O[C@@H]6OC=C[C@@]65O)[C@H]12)[C@@H]43` [AZADIRACHTIN O], for which the LD50 in the data set on Plutella xylostella [1] stood at 3.92 µg/g; in the data set with Plutella xylostella [2], 1.92 µg/g; in the data set on Plutella xylostella [3] it was 1.19 µg/g; in the data set with Plutella xylostella [4], 0.79 µg/g.

Values taken from ChEMBL document CHEMBL1158807, “Azadirachtin derivatives from seed kernels of Azadirachta excelsa” (J Nat Prod, 2005).
